Assays:
Type in all cases: cell-based
MOLM-13 cells = test: MOLM-13 cell viability assay (CellTiter-Glo); conditions: Homo sapiens, MOLM-13, 72 h, 3 days, read-out: MOLM-13 Cell Viability % DMSO at 1 μM
Experimental: MOLM-13 cells were cultured in RPMI 1640 media supplemented with 10% fetal bovine serum, streptomycin and penicillin, and were plated in walled 96-well plates at 2500 cells/well. Cells were incubated in DMSO (control) or the indicated compound for 3 days at 37° C. and 5% CO2. Following the incubation period, 100 μL of CellTiterGlow (CTG) reagent (CellTiter-Glo® Luminescent Cell Viability Assay, Promega (Madison, Wis.)) was added to each well. Following a 10 minutes incubation with shaking, luminescence was measured using the EnVision Multimode plate reader.
The MOLM-13 cell viability values as % DMSO are reported as “A”, “B”, “C”, or “D”. “A” represents a % viability value of less than 50% (value <50%). “B” represents a % viability value of equal to or more than 50% and less than 70% (50%≤value<70%). “C” represents a % viability value of equal to or more than 70% and less than 90% (70%≤value<90%). “D” represents a % viability value of equal or more than 90% (value ≥90%).

CDK16 = target: T1, CDK16 (Homo sapiens, UniProt Q00536); test: CDK16 degradation assay (Western blot, MV-4-11 cells); conditions: 6-8 h; for Dmax at 0.1 µM: MV4-11, 0.1 μM; for Dmax at 1 µM: MV4-11, 1 μM
T1 construct: Whole cell extracts were prepared using RIPA buffer; endogenous in cells; host or cells: MV-4-11
Experimental: (§1) MV-4-11 cells were grown in RPMI 1640 media supplemented with 10% fetal bovine serum, streptomycin and penicillin.
(§2) Cells were cultured at approximately 10^6 cells per mL and incubated in DMSO or the indicated compound for 6-8 h. Whole cell extracts were prepared using RIPA buffer according to manufacturer's protocol (Pierce). Briefly, 3×10^6 cells were washed once in PBS, the cell pellets were resuspended in RIPA buffer and allowed to incubate for 15 minutes on ice. Cells debris was removed by centrifugation and the cleared whole cell lysates were transferred to new tubes for further analysis.
(§3) For Western blot analysis, whole cell protein extracts were separated on 4-12% SDS-polyacrylamide gels, transferred to nitrocellulose and probed with the indicated primary antibodies. Membranes were subsequently washed and probed with the appropriate IRDye secondary antibodies (LI-COR). The signal was detected using the Odyssey Imaging System (LI-COR).
(§4) The following antibodies were used in these studies: Anti-eRF3/GSPT1: Abcam, ab126090 (Cambridge, Mass.); Anti-Ikaros: Abcam, ab191394 (Cambridge, Mass.); Anti-CK1α: Abcam, ab108296 (Cambridge, Mass.); Anti-CDK9: Santa Cruz Biotechnology, sc13130 (Dallas, Tex.); Anti-CDK16: Millipore Sigma, HPA001366 (St. Louis, Mo.); 3-actin (8H10comD10) mouse monoclonal antibody: Cell Signaling Technology, #3700 (Danvers, Mass.); IRDye 680RD Goat anti-rabbit antibody: LI-COR, 926-68071 (Lincoln, Nebr.); IRDye 800CW Goat anti-mouse antibody: LI-COR, 926-32210 (Lincoln, Nebr.).
(§5) CDK9 activities are shown in Table 4 at two different concentrations. CDK16 activities are shown in Table 5 at two different concentrations. In each of Tables 1-5, the % degradation values are reported as “A”, “B”, “C”, or “D”. “A” represents a % degradation value of less than 25% (value <25%). “B” represents a % degradation value of equal to or more than 25% and less than 50% (25%≤value<50%). “C” represents a % degradation value of equal to or more than 50% and less than 75% (50%≤value<75%). “D” represents a % degradation value of equal to or more than 75% (value ≥75%).

CDK9 = target: T2, CDK9 (Homo sapiens, UniProt P50750); test: CDK9 degradation assay (Western blot, MV-4-11 cells); conditions: 6-8 h; for Dmax at 0.1 µM: MV4-11, 0.1 μM; for Dmax at 1 µM: MV4-11, 1 μM
T2 construct: Whole cell extracts were prepared using RIPA buffer; endogenous in cells; host or cells: MV-4-11
Experimental: as §1, §2, §3, §4, §5

T1 sequence (Q00536 whole entry): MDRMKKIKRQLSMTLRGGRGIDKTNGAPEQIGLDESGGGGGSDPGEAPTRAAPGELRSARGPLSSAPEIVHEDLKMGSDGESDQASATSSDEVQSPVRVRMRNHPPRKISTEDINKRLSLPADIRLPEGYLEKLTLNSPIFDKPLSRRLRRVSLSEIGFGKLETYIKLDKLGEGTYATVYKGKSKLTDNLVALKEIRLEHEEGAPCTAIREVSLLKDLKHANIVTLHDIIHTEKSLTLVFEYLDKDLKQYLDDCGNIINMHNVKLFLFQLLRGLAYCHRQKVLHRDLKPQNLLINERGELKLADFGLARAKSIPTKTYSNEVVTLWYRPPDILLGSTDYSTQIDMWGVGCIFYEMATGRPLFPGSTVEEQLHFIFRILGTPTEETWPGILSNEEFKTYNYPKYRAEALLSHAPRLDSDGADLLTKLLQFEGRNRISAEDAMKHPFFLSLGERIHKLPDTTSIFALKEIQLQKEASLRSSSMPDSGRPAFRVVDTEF
T2 sequence (P50750 whole entry): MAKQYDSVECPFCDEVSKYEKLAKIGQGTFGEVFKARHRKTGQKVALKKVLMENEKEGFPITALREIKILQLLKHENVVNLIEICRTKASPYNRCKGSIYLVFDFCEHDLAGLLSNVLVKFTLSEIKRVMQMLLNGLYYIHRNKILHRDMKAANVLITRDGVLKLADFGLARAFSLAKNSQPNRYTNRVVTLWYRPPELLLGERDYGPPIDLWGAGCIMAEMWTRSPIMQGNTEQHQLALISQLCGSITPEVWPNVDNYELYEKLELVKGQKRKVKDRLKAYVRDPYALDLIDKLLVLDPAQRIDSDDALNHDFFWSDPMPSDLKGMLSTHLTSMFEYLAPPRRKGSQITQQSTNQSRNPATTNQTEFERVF

Row | Dmax at 0.1 µM (CDK16) [%] | Dmax at 1 µM (CDK16) [%] | Dmax at 0.1 µM (CDK9) [%] | Dmax at 1 µM (CDK9) [%] | SMILES | viability at 1 µM (MOLM-13 cells) [%]
1 | – | – | – | – | Cn1ncc(-c2nc(N[C@H]3CC[C@H](NCC(=O)NCCCCNCC(=O)NCc4scc5c4C(=O)N(C4CCC(=O)NC4=O)C5=O)CC3)ncc2F)c1CC1CC1 (some centres unmarked) [Compound 48, 2-(((1r,4r)-4-((4-(5-(cyclopropylmethyl)-1-methyl-1H-pyrazol-4-yl)-5-fluoropyrimidin-2-yl)amino)cyclohexyl)amino)-N-(4-((2-(((5-(2,6-dioxopiperidin-3-yl)-4,6-dioxo-5,6-dihydro-4H-thieno[3,4-c]pyrrol-1-yl)methyl)amino)-2-oxoethyl)amino)butyl)acetamide] | > 90
2 | – | – | – | – | CN(CCNCC(=O)NCc1cc2c(s1)C(=O)N(C1CCC(=O)NC1=O)C2)CCNC(=O)CN1CCC(C(=O)Nc2ncc(SCc3ncc(C(C)(C)C)o3)s2)CC1 (centres unmarked) [Compound 47, N-(5-(((5-(tert-butyl)oxazol-2-yl)methyl)thio)thiazol-2-yl)-1-(1-(5-(2,6-dioxopiperidin-3-yl)-6-oxo-5,6-dihydro-4H-thieno[2,3-c]pyrrol-2-yl)-8-methyl-3,12-dioxo-2,5,8,11-tetraazatridecan-13-yl)piperidine-4-carboxamide] | 70 to 90
3 | 25 to 50 | ≥ 75 | 25 to 50 | ≥ 75 | Cn1ncc(-c2nc(N[C@H]3CC[C@H](NCC(=O)NCCCCCNCC(=O)NCc4scc5c4CN(C4CCC(=O)NC4=O)C5=O)CC3)ncc2Cl)c1CC1CC1 (some centres unmarked) [Compound 31, 2-(((1r,4r)-4-((5-chloro-4-(5-(cyclopropylmethyl)-1-methyl-1H-pyrazol-4-yl)pyrimidin-2-yl)amino)cyclohexyl)amino)-N-(5-((2-(((5-(2,6-dioxopiperidin-3-yl)-4-oxo-5,6-dihydro-4H-thieno[3,4-c]pyrrol-1-yl)methyl)amino)-2-oxoethyl)amino)pentyl)acetamide] | > 90
4 | 50 to 75 | 50 to 75 | 50 to 75 | ≥ 75 | Cn1ncc(-c2nc(N[C@H]3CC[C@H](NCC(=O)NCCCCCNC(=O)NCc4cc5c(s4)C(=O)N(C4CCC(=O)NC4=O)C5)CC3)ncc2F)c1CC1CC1 (some centres unmarked) [Compound 17, 2-(((1r,4r)-4-((4-(5-(cyclopropylmethyl)-1-methyl-1H-pyrazol-4-yl)-5-fluoropyrimidin-2-yl)amino)cyclohexyl)amino)-N-(5-(3-((5-(2,6-dioxopiperidin-3-yl)-6-oxo-5,6-dihydro-4H-thieno[2,3-c]pyrrol-2-yl)methyl)ureido)pentyl)acetamide] | –
5 | – | – | – | – | Cn1ncc(-c2nc(N[C@H]3CC[C@H](NCC(=O)NCCOCCOCCOCCNCc4cc5c(s4)C(=O)N(C4CCC(=O)NC4=O)C5)CC3)ncc2F)c1CC1CC1 (some centres unmarked) [Compound 62, 2-(((1r,4r)-4-((4-(5-(cyclopropylmethyl)-1-methyl-1H-pyrazol-4-yl)-5-fluoropyrimidin-2-yl)amino)cyclohexyl)amino)-N-(1-(5-(2,6-dioxopiperidin-3-yl)-6-oxo-5,6-dihydro-4H-thieno[2,3-c]pyrrol-2-yl)-5,8,11-trioxa-2-azatridecan-13-yl)acetamide] | > 90
6 | – | – | – | – | CC(C)(C)c1cnc(CSc2cnc(NC(=O)C3CCN(CC(=O)NCCCCCNC(=O)NCc4cc5c(s4)C(=O)N(C4CCC(=O)NC4=O)C5)CC3)s2)o1 (centres unmarked) [Compound 1, 3-[8-Oxo-3-({3-[5-(2-{4-[(5-{[5-(tert-butyl)-1,3-oxazol-2-yl]methylthio}-1,3-thiazol-2-ylamino)carbonyl]-1-piperidyl}acetylamino)pentyl]ureido}methyl)-2-thia-7-azabicyclo[3.3.0]octa-1(5),3-dien-7-yl]-2,6-piperidinedione] | > 90
7 | < 25 | < 25 | 50 to 75 | ≥ 75 | CN(CCNC(=O)CN1CCC(C(=O)Nc2ncc(SCc3ncc(C(C)(C)C)o3)s2)CC1)CCNC(=O)NCc1cc2c(s1)C(=O)N(C1CCC(=O)NC1=O)C2 (centres unmarked) [Compound 15, N-(5-(((5-(tert-butyl)oxazol-2-yl)methyl)thio)thiazol-2-yl)-1-(1-(5-(2,6-dioxopiperidin-3-yl)-6-oxo-5,6-dihydro-4H-thieno[2,3-c]pyrrol-2-yl)-7-methyl-3,11-dioxo-2,4,7,10-tetraazadodecan-12-yl)piperidine-4-carboxamide] | 70 to 90
8 | ≥ 75 | ≥ 75 | 50 to 75 | ≥ 75 | Cn1ncc(-c2nc(N[C@H]3CC[C@H](NCC(=O)NCCCCCNC(=O)NCc4cc5c(s4)C(=O)N(C4CCC(=O)NC4=O)C5)CC3)ncc2Cl)c1CC1CC1 (some centres unmarked) [Compound 16, 2-(((1r,4r)-4-((5-chloro-4-(5-(cyclopropylmethyl)-1-methyl-1H-pyrazol-4-yl)pyrimidin-2-yl)amino)cyclohexyl)amino)-N-(5-(3-((5-(2,6-dioxopiperidin-3-yl)-6-oxo-5,6-dihydro-4H-thieno[2,3-c]pyrrol-2-yl)methyl)ureido)pentyl)acetamide] | > 90
9 | 50 to 75 | ≥ 75 | ≥ 75 | ≥ 75 | Cn1ncc(-c2nc(N[C@H]3CC[C@H](NCCCCCCCCNC(=O)NCc4cc5c(s4)C(=O)N(C4CCC(=O)NC4=O)C5)CC3)ncc2F)c1CC1CC1 (some centres unmarked) [Compound 23, 1-(8-(((1r,4r)-4-((4-(5-(cyclopropylmethyl)-1-methyl-1H-pyrazol-4-yl)-5-fluoropyrimidin-2-yl)amino)cyclohexyl)amino)octyl)-3-((5-(2,6-dioxopiperidin-3-yl)-6-oxo-5,6-dihydro-4H-thieno[2,3-c]pyrrol-2-yl)methyl)urea] | > 90
10 | – | – | – | – | Cn1ncc(-c2nc(N[C@H]3CC[C@H](NCCCCCNCC(=O)NCc4cc5c(s4)C(=O)N(C4CCC(=O)NC4=O)C5)CC3)ncc2Cl)c1CC1CC1 (some centres unmarked) [Compound 60, 2-((5-(((1r,4r)-4-((5-chloro-4-(5-(cyclopropylmethyl)-1-methyl-1H-pyrazol-4-yl)pyrimidin-2-yl)amino)cyclohexyl)amino)pentyl)amino)-N-((5-(2,6-dioxopiperidin-3-yl)-6-oxo-5,6-dihydro-4H-thieno[2,3-c]pyrrol-2-yl)methyl)acetamide] | > 90
11 | – | – | – | – | Cn1ncc(-c2nc(N[C@H]3CC[C@H](NCCCCCCCNCC(=O)NCc4cc5c(s4)C(=O)N(C4CCC(=O)NC4=O)C5)CC3)ncc2Cl)c1CC1CC1 (some centres unmarked) [Compound 53, 2-((7-(((1r,4r)-4-((5-chloro-4-(5-(cyclopropylmethyl)-1-methyl-1H-pyrazol-4-yl)pyrimidin-2-yl)amino)cyclohexyl)amino)heptyl)amino)-N-((5-(2,6-dioxopiperidin-3-yl)-6-oxo-5,6-dihydro-4H-thieno[2,3-c]pyrrol-2-yl)methyl)acetamide] | > 90
12 | 25 to 50 | 25 to 50 | ≥ 75 | ≥ 75 | CC(C)(C)c1cnc(CSc2cnc(NC(=O)C3CCN(CC(=O)NCCCNC(=O)NCc4cc5c(s4)C(=O)N(C4CCC(=O)NC4=O)C5)CC3)s2)o1 (centres unmarked) [Compound 12, N-(5-(((5-(tert-butyl)oxazol-2-yl)methyl)thio)thiazol-2-yl)-1-(2-((3-(3-((5-(2,6-dioxopiperidin-3-yl)-6-oxo-5,6-dihydro-4H-thieno[2,3-c]pyrrol-2-yl)methyl)ureido)propyl)amino)-2-oxoethyl)piperidine-4-carboxamide] | > 90
